Key:
normal human plasma = assay: Anticoagulant activity, partial thromboplastin time (APTT) assay; format: biochemical; conditions: human citrated plasma
Experimental: The anticlotting activity of the compounds of this invention was evaluated in a partial thromboplastin time (APTT) assay using normal human plasma collected from 5 donors according to the procedure of Fenichel et. al. (Clin. Chem. 1964, 10, 69). A BBL Fibrometer automatic precision coagulation timer utilizing a 0.3 mL probe was employed. An Ellagic acid activated partial thromboplastin was used for these experiments. This reagent was added to human citrated plasma equilibrated at 37 °C in a plastic well in the clot timer. Calcium at 37 °C was added, the clot timer was started and the time for fibrin clot formation (in seconds) was recorded. The effect of the compounds, added to plasma, over a concentration of 12.5 - 200 µg/mL was determined. […] An unfractionated heparin comparator was used over the concentration range of 1.25 - 10 µg/mL. Clotting tests at all concentrations were run in triplicate. Analysis of variance for a randomized block design was used to determine the significance of differences observed in the clotting times. […]

[1] = tested on: Porcine Smooth Muscle Cell; assay: Cytotoxicity, MTT assay; format: cell-based; conditions: up to 100 µg/mL; 24 h, medium without serum
Experimental: Briefly, cells were again grown in 24 well plates to 70 - 80 % confluency and, as before, serum deprived for 24 - 48 h prior to initiation of the experimental protocol. To insure that the MTT assay monitored toxicity rather than proliferation, cells were incubated with 100 µg/mL of drug in fresh medium without serum for 24 h at 37 °C in a humidified CO2 incubator. Upon completion of the compound treatment, MTT (3-[4,5-dimethylthiazol-2-yl]-2,5-diphenyltetrazolium bromide) indicator dye was added for 4 h at 37 °C. Cells were then lysed and aliquots from each well were transferred to a 96 well plate for analysis. Absorbance at 570 nm wavelength with a reference wavelength of 630 nm was recorded using an ELISA plate reader. Results were determined as percent viable using no drug (100% viable) and pre-solubilization (0% viable) standards.

SMILES	anticoagulant activity (APTT assay) (normal human plasma)	toxicity (MTT, percent viable) [1]
CCCCC(=O)Nc1cc(CO[C@@H]2O[C@H](COC(C)=O)[C@@H](O[C@H]3O[C@H](COC(C)=O)[C@@H](OC(C)=O)[C@H](OC(C)=O)[C@H]3OC(C)=O)[C@H](OC(C)=O)[C@H]2OC(C)=O)ccc1C [Example 12, Pentanoic Acid N-[5-(Hepta-O-acetyl-β-D-maltosyloxymethyl)-2-methylphenyl]amide]	no anticoagulant activity	no toxicity
CC(=O)OC[C@H]1O[C@H](O[C@H]2[C@H](OC(C)=O)[C@@H](OC(C)=O)[C@H](OCc3ccc(C)c(NS(=O)(=O)c4ccc(NS(C)(=O)=O)cc4)c3)O[C@@H]2COC(C)=O)[C@H](OC(C)=O)[C@@H](OC(C)=O)[C@@H]1OC(C)=O [Example 17, N-[5-(Hepta-O-acetyl-β-D-maltosyloxymethyl)-2-methylphenyl]-4-(methanesulfonylamino)benzenesulfonamide]	no anticoagulant activity	no toxicity

From patent EP0791004B1, “ACYLATED BENZYLGLYCOSIDES AS INHIBITORS OF SMOOTH MUSCLE CELL PROLIFERATION” (AMERICAN HOME PRODUCTS CORPORATION, priority 1994, dated 1996)
